Source: patent US10350210B2, “EGFR and ALK dual inhibitor” (PRECEDO PHARMACEUTICALS CO., LTD, priority 2015, dated 2019)

Columns and labels:
NCI-H2122 = test: Growth of cancer cells (Cell Titer-Glo viability), NCI-H2122; format: cell-based; conditions: Homo sapiens; NCI-H2122 (wild-type EGFR), 72 hrs
CHO = test: Cell growth (Cell Titer-Glo viability), CHO; format: cell-based, Chinese hamster; conditions: Cricetulus griseus; CHO Chinese hamster ovary cell, 72 hrs; read-out: GI50
A549 = test: Effect on cell apoptosis (Western Blot, PARP and Caspase 3 cleavage), A549; format: cell-based, human; conditions: A549 (wild-type EGFR), 24 hours
From the text: (§1) In order to confirm whether the death of cells is through apoptosis or necrosis after administration of drugs, non-small cell lung cancer cell A549 (expressing wild-type EGFR gene), non-small cell lung cancer cell line H1975 (expressing EGFR L858R/T790M double mutant gene), non-small cell lung cancer cell line H3255 (expressing EGFR L858R mutant gene), non-small cell lung cancer cell line H3122 (expressing ALK gene) cell line, and non-small cell lung cancer cell line PC-9 (expressing EGFR delE746_A750 mutant gene) were tested for effect of Compound 1 on cleavage of poly ADP-ribose polymerase PARP which is a DNA repair enzyme and Caspase 3, which were closely related to cell apoptosis. […] Western Blot was used to detect the effect of various concentrations of drugs at various time points on cleavage of poly ADP-ribose polymerase PARP which is a DNA repair enzyme and Caspase 3.

NCI-H1975 = test: Growth of cancer cells (Cell Titer-Glo viability), NCI-H1975; format: cell-based; conditions: Homo sapiens; NCI-H1975 (EGFR L858R/T790M double mutant), 72 hrs
Summary of the method: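 Cells are counted as viable by CellTiter-Glo chemiluminescence. Murine BaF3 lines depend on a stably transfected TEL-fused kinase after IL-3 withdrawal, and the NSCLC lines express mutant EGFR.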

BaF3-TEL-EGFR-T790M = test: Cell growth (Cell Titer-Glo viability), BaF3-TEL-EGFR-T790M; format: cell-based; conditions: Mus musculus; BaF3-TEL-EGFR-T790M (EGFR T790M mutant kinase), 72 hrs
Summary of the method: (§2)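 Mouse BaF3 cells retrovirally transduced with human kinase fused to N-terminal TEL fragment, then IL-3 withdrawn so proliferation depends on the transgene. HCC827 carries EGFR del19 and NCI-H3255 EGFR L858R. Viable cells were quantified by CellTiter-Glo chemiluminescence on a microplate reader.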

HCC827 = test: Growth of cancer cells (Cell Titer-Glo viability), HCC827; format: cell-based; conditions: Homo sapiens; HCC827 (mutant EGFR del19), 72 hrs
Summary of the method: as §2

H3122 = test: Effect on cell apoptosis (Western Blot, PARP and Caspase 3 cleavage), H3122; format: cell-based, human; conditions: H3122 (ALK gene), 24 hours
From the text: as §1

H3255 = test: Effect on cell apoptosis (Western Blot, PARP and Caspase 3 cleavage), H3255; format: cell-based; conditions: H3255 (EGFR L858R), 24 hours
From the text: as §1

BaF3-NPM-ALK = test: Cell growth (Cell Titer-Glo viability), BaF3-NPM-ALK; format: cell-based; conditions: Mus musculus; BaF3-NPM-ALK (stably expressing ALK kinase), 72 hrs
BaF3-FL-EGFR-T790M-L858R = test: Cell growth (Cell Titer-Glo viability), BaF3-FL-EGFR-T790M-L858R; format: cell-based; conditions: Mus musculus; BaF3-FL-EGFR-T790M-L858R (EGFR T790M/L858R mutant kinase), 72 hrs
Experimental: By testing the effect of the novel kinase inhibitors on the proliferation of cancer cells, the selectivity of the compounds of the present disclosure in inhibiting the proliferation of cancer cells was further assessed. […]
The number of viable cells was determined quantitatively by a microplate reader using Cell Titer-Glo® (Promega, US) chemiluminescence cell viability assay kit.

GI50 (NCI-H2122) | GI50 (NCI-H1975) | GI50 (BaF3-TEL-EGFR-T790M) | GI50 (HCC827) | GI50 (BaF3-NPM-ALK) | GI50 (BaF3-FL-EGFR-T790M-L858R) | Compound | GI50 (CHO) | cleavage of PARP or Caspase 3 (apoptosis) (A549) | concentration at which evident cleavage of PARP and Caspase 3 could be observed (H3122) | concentration at which evident cleavage of PARP and Caspase 3 could be observed (H3255)
9 nM | 67 nM | 32 nM | 3 nM | < 0.3 nM | – | C=CC(=O)Nc1cc(Nc2ncc(Cl)c(Nc3ccccc3S(=O)(=O)C(C)C)n2)c(OC)cc1N1CCN(CC)CC1 [Compound 1, N-(5-(5-chloro-4-(2-(isopropylsulfonyl)phenylamino)pyrimidin-2-ylamino)-2-(4-ethylpiperazin-1-yl)-4-methoxyphenyl)acrylamide] | 200 nM | not observed | 0.03 µM | 0.03 µM
190 nM | 15 nM | – | – | 1 nM | 2 nM | C=CC(=O)Nc1cc(Nc2ncc(Cl)c(Nc3ccccc3S(=O)(=O)C(C)C)n2)c(OC)cc1N1CCCN(C)CC1 [Compound 10, N-(5-(5-chloro-4-(2-(isopropylsulfonyl)phenylamino)pyrimidin-2-ylamino)-4-methoxy-2-(4-methyl-1,4-homopiperazin-1-yl)phenyl)acrylamide] | 990 nM | – | 1 µM | –
